The results in this text go back to ChEMBL document CHEMBL2331223, “Synthesis of 2-aminomethyl-4-phenyl-1-azabicyclo[2.2.1]heptanes via LiAlH₄-induced reductive cyclization of 2-(4-chloro-2-cyano-2-phenylbutyl)aziridines and evaluation of their antimalarial activity” (Bioorg Med Chem Lett, 2013).

Data set [1] has as its system Plasmodium falciparum. As to the kind of experiment: Antimalarial activity against chloroquine-sensitive Plasmodium falciparum D10. It counts as functional, organism-based.
The subject of data set [2] is Plasmodium falciparum. The data set can be described thus: Resistant index, ratio of IC50 for chloroquine-resistant Plasmodium falciparum Dd2 to IC50 for chloroquine-sensitive Plasmodium falciparum D10. It counts as functional.
For data set [3], the system named is Plasmodium falciparum. As to the kind of experiment: Antimalarial activity against chloroquine-resistant Plasmodium falciparum Dd2. It counts as functional, organism-based.
The nature of data set [4]: Selectivity index, ratio of IC50 for CHO cells to IC50 for chloroquine-sensitive Plasmodium falciparum D10. The settings on record: hamster, read-out: Ratio IC50. The format is toxicity, cell-based.
The next data set relates to CHO. The data set can be described thus: Cytotoxicity against CHO cells by MTT assay. The following applies: Cricetulus griseus. The format is cell-based.

Bounds are passed on as bounds.

Broadly, the IC50 is the concentration that gives 50% inhibition. Higher therefore signals weaker potency. With `c1ccc(CNC[C@@H]2C[C@@]3(c4ccccc4)CCN2C3)cc1` (relative stereo), the IC50 in the data set with Plasmodium falciparum [1] worked out at 2.63 µM; in the data set on Plasmodium falciparum [3] it was 24.2 µM; in the data set on CHO it was 231 µM. Moreover, in the data set on Plasmodium falciparum [2], the “Ratio IC50” value worked out at 9.6. Also, the selectivity ratio in data set [4] was 91.2.
On the same counts, the results for `Cc1ccc(CNC[C@@H]2C[C@@]3(c4ccccc4)CCN2C3)cc1` (relative stereo) are 0.81 µM, 10 µM, 160 µM, 12.5 and 200.
For `Cc1ccc(CNC[C@H]2C[C@@]3(c4ccccc4)CCN2C3)cc1` (relative stereo), the IC50 with Plasmodium falciparum [1] turned out to be 10.3 µM; in the data set with Plasmodium falciparum [3], 15.9 µM; in the data set with CHO, 163 µM. Also, the “Ratio IC50” value in the data set on Plasmodium falciparum [2] is given as 1.5. For the same compound, in data set [4], the selectivity ratio is 15.7.
In turn, `CC[C@H]1CN2CCc3cc(OC)c(OC)cc3[C@@H]2C[C@@H]1C[C@H]1NCCc2cc(OC)c(OC)cc21` [EMETINE] showed an IC50 in the data set on CHO of 0.33 µM.
In the case of `Clc1ccc(CNC[C@@H]2C[C@@]3(c4ccccc4)CCN2C3)cc1` (relative stereo), the figures for the IC50 in the data set on Plasmodium falciparum [1], with Plasmodium falciparum [3] and in the data set with CHO were 1.39 µM, 2.4 µM and 71.2 µM, respectively. In addition, the “Ratio IC50” value with Plasmodium falciparum [2] is given as 1.7. Also, in data set [4], the selectivity ratio is 51.1.
Turning to `Clc1ccc(CNC[C@H]2C[C@@]3(c4ccccc4)CCN2C3)cc1` (relative stereo), the values for the IC50 in the data set on Plasmodium falciparum [1], in the data set on Plasmodium falciparum [3] and with CHO were 6.01 µM, 11.8 µM and 90.4 µM, respectively. In addition, the “Ratio IC50” value in the data set with Plasmodium falciparum [2] is reported as 2. Also, the selectivity ratio in data set [4] was 15.1.
As for `c1ccc(CNC[C@H]2C[C@@]3(c4ccccc4)CCN2C3)cc1` (relative stereo), the IC50 in the data set on Plasmodium falciparum [1] is 18.4 µM; with Plasmodium falciparum [3] it was 78.5 µM; in the data set with CHO it was greater than 300 µM. The “Ratio IC50” value in the data set on Plasmodium falciparum [2] is 4.4.
